{
  "source": "EPA's ToxValDB 9.5 (doi:10.2903/j.efsa.2006.75r)",
  "key": {"Lepomis macrochirus": {"tested_on": "Lepomis macrochirus", "conditions": "acute; duration: 96 hours; mortality"}, "Daphnia magna": {"tested_on": "Daphnia magna", "conditions": "chronic/long-term; duration: 21 days; reproduction"}, "Aphidius rhopalosiphi [1]": {"tested_on": "Aphidius rhopalosiphi", "conditions": "chronic/long-term; reproduction"}, "Rattus norvegicus": {"tested_on": "Rattus norvegicus", "conditions": "for NOAEL: clinical chemistry"}, "Mus musculus": {"tested_on": "Mus musculus", "conditions": "oral"}, "[2]": {"conditions": "chronic"}, "Apis mellifera": {"tested_on": "Apis mellifera", "conditions": "acute, mortality"}, "Coturnix japonica": {"tested_on": "Coturnix japonica", "conditions": "acute; oral; diet; mortality"}, "Tagia sp.": {"tested_on": "Tagia sp.", "conditions": "acute; mortality"}, "Canidae": {"tested_on": "Canidae", "conditions": "short-term; duration: 28 days; oral; Dog Other; clinical chemistry"}, "Oncorhynchus mykiss": {"tested_on": "Oncorhynchus mykiss", "conditions": "chronic/long-term; duration: 96 days; growth"}, "Aphidius rhopalosiphi [3]": {"tested_on": "Aphidius rhopalosiphi", "assay": "LR50; higher = less toxic", "conditions": "acute; duration: 48 hours; mortality"}},
  "data": [
    {"smiles": "COP(=S)(OC)SCN1C(=O)c2ccccc2C1=O", "note": "[Phosmet]", "values": [
      {"measurement": "LC50", "setting": "Lepomis macrochirus", "value": 0.0197, "unit": "µg/mL"},
      {"measurement": "NOEC", "setting": "Daphnia magna", "value": 0.00078, "unit": "mg/L"},
      {"measurement": "LEL", "setting": "Aphidius rhopalosiphi [1]", "value": 1.41, "unit": "g/ha"},
      {"measurement": "NOAEL", "setting": "Rattus norvegicus; acute", "value": 4.5, "unit": "mg/kg-day"},
      {"measurement": "LD50", "setting": "Rattus norvegicus; acute, oral, mortality", "value": 113, "unit": "mg/kg"},
      {"measurement": "NOAEC", "setting": "Rattus norvegicus; reproduction developmental", "value": 1.5, "unit": "mg/kg-day"},
      {"measurement": "NOAEL", "setting": "Rattus norvegicus; subchronic, duration: 13 weeks", "value": 1.5, "unit": "mg/kg-day"},
      {"measurement": "NOAEL", "setting": "Rattus norvegicus; subchronic, duration: 90 days, oral", "value": 2, "unit": "mg/kg-day"},
      {"measurement": "LOAEL", "setting": "Mus musculus; chronic, duration: 2 years, diet, neurology", "value": 1, "unit": "mg/kg-day"},
      {"measurement": "NOAEL", "setting": "Mus musculus; short-term, duration: 28 days, clinical chemistry", "value": 2, "unit": "mg/kg-day"},
      {"measurement": "NOEC", "setting": "[2]", "value": 0.001, "unit": "mg/L"},
      {"measurement": "LD50", "setting": "Apis mellifera; duration: 48 hours, dermal", "value": 0.22, "unit": "µg/piece"},
      {"measurement": "LD50", "setting": "Apis mellifera; oral, unspecified", "value": 0.37, "unit": "µg/piece"},
      {"measurement": "LC50", "setting": "Coturnix japonica", "value": 406, "unit": "mg/kg-day"},
      {"measurement": "LC50", "setting": "Tagia sp.", "value": 104, "unit": "mg/kg"},
      {"measurement": "NOAEL", "setting": "Canidae", "value": 2, "unit": "mg/kg-day"},
      {"measurement": "LD50", "setting": "Colinus virginianus; acute, oral, mortality", "value": 57, "unit": "mg/kg"},
      {"measurement": "NOEC", "setting": "Colinus virginianus; reproduction developmental", "value": 7.5, "unit": "mg/kg-day"},
      {"measurement": "NOEC", "setting": "Oncorhynchus mykiss", "value": 0.0032, "unit": "mg/L"},
      {"measurement": "LR50", "setting": "Aphidius rhopalosiphi [3]", "value": 1.95, "unit": "g/ha"}
    ]}
  ]
}
